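Results reflect a 48-hour exposure of cells in 96-well plates to compound at five concentrations. GI50 marks 50% less growth.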 Activity calls are given as the source filed them. Rule as the data show it: active = GI50 up to about 1.1 µM and inactive = higher.
Tests used:
Assay in all cases: NCI tumour cell line growth inhibition, 48 h
OVCAR-3 = tested on: OVCAR-3
SF-539 = tested on: SF-539
SNB-75 = tested on: SNB-75
DU-145 = tested on: DU-145
M14 = tested on: M14
UO-31 = tested on: UO-31
TK-10 = tested on: TK-10
HOP-62 = tested on: HOP-62
ACHN = tested on: ACHN
SK-MEL-2 = tested on: SK-MEL-2
SW-620 = tested on: SW-620
MCF7 = tested on: MCF7
NCI-H23 = tested on: NCI-H23
SK-MEL-5 = tested on: SK-MEL-5
MOLT-4 = tested on: MOLT-4
OVCAR-8 = tested on: OVCAR-8
UACC-257 = tested on: UACC-257
HL-60 = tested on: HL-60
RXF 393 = tested on: RXF 393
A498 = tested on: A498

Measured: GI50

CC(C)OCC1CC(CC(=O)Nc2nncs2)C(=O)O1 (configuration not stated)
inactive: OVCAR-3 > 100 µM | SF-539 > 100 µM | SNB-75 > 100 µM | DU-145 > 100 µM | M14 > 100 µM | UO-31 > 100 µM | TK-10 > 100 µM | HOP-62 > 100 µM | ACHN > 100 µM | SK-MEL-2 > 100 µM | SW-620 > 100 µM | MCF7 > 100 µM | NCI-H23 > 100 µM | SK-MEL-5 > 100 µM | MOLT-4 > 100 µM | OVCAR-8 > 100 µM | UACC-257 > 100 µM

CC(C)=CCc1cc2c(cc1O)OC[C@H]1c3cc4c(cc3O[C@@H]21)OCO4
inactive: OVCAR-3 37.2 µM | HL-60 23.8 µM | SF-539 36.7 µM | SNB-75 78.7 µM | DU-145 38.8 µM | M14 62.1 µM | UO-31 31.6 µM | TK-10 39.8 µM | HOP-62 91.6 µM | ACHN 42.4 µM | SW-620 36.5 µM | MCF7 25.3 µM | NCI-H23 33.2 µM | SK-MEL-5 20.3 µM | MOLT-4 22.1 µM | OVCAR-8 > 100 µM | UACC-257 45.3 µM | RXF 393 21.4 µM

COC1=C2CC(C)CC(OC)C(O)C(C)/C=C(\C)C(OC(N)=O)C(OC)/C=C\C=C(/C)C(=O)NC(=C(/C=N/N3CCCCC3)C1=O)C2=O (configuration not stated)
inactive: OVCAR-3 2.15 µM | HL-60 1.95 µM | SF-539 7.33 µM | SNB-75 17.8 µM | DU-145 18.3 µM | M14 18.7 µM | UO-31 10.8 µM | TK-10 27.9 µM | A498 23.9 µM | HOP-62 18.3 µM | ACHN 15.4 µM | SK-MEL-2 17 µM | SW-620 2.82 µM | NCI-H23 15.8 µM | SK-MEL-5 15.8 µM | MOLT-4 2.62 µM | OVCAR-8 3.83 µM | UACC-257 11.9 µM | RXF 393 5.73 µM

CCc1nnc(CC)n1-n1c(Cc2ccccc2)n[nH]c1=O
inactive: OVCAR-3 > 100 µM | SF-539 > 100 µM | SNB-75 > 100 µM | DU-145 > 100 µM | M14 > 100 µM | UO-31 > 100 µM | TK-10 > 100 µM | HOP-62 > 100 µM | ACHN > 100 µM | SK-MEL-2 > 100 µM | SW-620 > 100 µM | MCF7 > 100 µM | NCI-H23 > 100 µM | SK-MEL-5 > 100 µM | MOLT-4 > 100 µM | OVCAR-8 > 100 µM | UACC-257 > 100 µM | RXF 393 > 100 µM

CC1CCC2C(C)C(=O)OC2C2(C)C(=O)C=CC12 (configuration not stated)
inactive: OVCAR-3 > 10 µM | HL-60 6.82 µM | SF-539 > 10 µM | SNB-75 > 10 µM | DU-145 > 10 µM | M14 > 10 µM | UO-31 > 10 µM | TK-10 > 10 µM | HOP-62 > 10 µM | ACHN > 10 µM | SK-MEL-2 9.4 µM | SW-620 > 10 µM | MCF7 8.79 µM | NCI-H23 > 10 µM | SK-MEL-5 > 10 µM | MOLT-4 6.59 µM | OVCAR-8 > 10 µM | UACC-257 > 10 µM | RXF 393 > 10 µM

CNC(=O)c1nnn(Cc2ccccc2)c1S
inactive: OVCAR-3 > 100 µM | SNB-75 > 100 µM | DU-145 > 100 µM | M14 > 100 µM | UO-31 > 100 µM | TK-10 > 100 µM | HOP-62 > 100 µM | ACHN > 100 µM | SK-MEL-2 > 100 µM | SW-620 > 100 µM | MCF7 > 100 µM | NCI-H23 > 100 µM | SK-MEL-5 > 100 µM | MOLT-4 > 100 µM | OVCAR-8 > 100 µM | UACC-257 > 100 µM | RXF 393 > 100 µM

Cn1c(NNc2ccccc2)cc(=O)[nH]c1=O
inactive: OVCAR-3 23.2 µM | HL-60 32.7 µM | SF-539 29.3 µM | SNB-75 81.7 µM | DU-145 > 100 µM | M14 33.9 µM | UO-31 28.2 µM | TK-10 > 100 µM | HOP-62 > 100 µM | ACHN 4.25 µM | SK-MEL-2 3.63 µM | SW-620 62.1 µM | MCF7 33.8 µM | NCI-H23 > 100 µM | SK-MEL-5 25.6 µM | MOLT-4 39.3 µM | OVCAR-8 29.8 µM | UACC-257 95.7 µM | RXF 393 61.8 µM

COC(=O)c1ccccc1CC1Cc2cccc(C)c2C1=O (configuration not stated)
inactive: OVCAR-3 33.7 µM | SF-539 89.7 µM | SNB-75 22.7 µM | DU-145 96.4 µM | M14 34.8 µM | UO-31 22.7 µM | TK-10 21.3 µM | HOP-62 > 100 µM | ACHN 34.8 µM | SK-MEL-2 21.8 µM | SW-620 42.4 µM | MCF7 26.6 µM | NCI-H23 57.5 µM | SK-MEL-5 21.4 µM | MOLT-4 19.9 µM | OVCAR-8 35 µM | UACC-257 34 µM | RXF 393 24.7 µM

CCOC(=O)c1c(-c2ccc(OC)cc2)c(C#N)c(=S)n(C2OC(CO)C(O)C(O)C2O)c1-c1ccccc1 (configuration not stated)
inactive: OVCAR-3 24.6 µM | HL-60 40.8 µM | SF-539 38.1 µM | SNB-75 78.7 µM | DU-145 48.4 µM | M14 31.9 µM | UO-31 51.5 µM | TK-10 55.6 µM | HOP-62 25.4 µM | ACHN 54.7 µM | SK-MEL-2 31.3 µM | SW-620 36.1 µM | MCF7 39.4 µM | NCI-H23 31.8 µM | SK-MEL-5 13.3 µM | MOLT-4 30.7 µM | UACC-257 > 100 µM | RXF 393 26.2 µM

O=C1O[C@H](c2ccc3c(c2)OCO3)[C@H]2CO[C@@H](c3ccc4c(c3)OCO4)[C@@H]12
inactive: HL-60 > 100 µM | SF-539 > 100 µM | M14 > 100 µM | UO-31 > 100 µM | TK-10 > 100 µM | HOP-62 > 100 µM | ACHN > 100 µM | SK-MEL-2 > 100 µM | SW-620 > 100 µM | MCF7 > 100 µM | NCI-H23 78.7 µM | SK-MEL-5 42 µM | MOLT-4 43.5 µM | OVCAR-8 > 100 µM | UACC-257 54.6 µM | RXF 393 > 100 µM

O=C1Oc2cc(O)cc(/C=C/c3ccc(O)cc3)c2[C@@]12c1c(O)cc(O)cc1OC2c1cccc(O)c1 (some centres not stated)
inactive: OVCAR-3 61.2 µM | HL-60 28.9 µM | SF-539 31.8 µM | SNB-75 52.2 µM | DU-145 39 µM | M14 28.6 µM | UO-31 29.7 µM | TK-10 39.1 µM | HOP-62 20.3 µM | ACHN 52.5 µM | SK-MEL-2 24.2 µM | MCF7 39.1 µM | NCI-H23 24.7 µM | SK-MEL-5 12.5 µM | MOLT-4 42.8 µM | OVCAR-8 41.2 µM | UACC-257 15.2 µM | RXF 393 34.6 µM
